In patent US11970497B2, “Tricyclic AKR1C3 dependent KARS inhibitors” (Novartis AG, priority 2019, dated 2024):

Experiments:
[1] = system: H460 (NRF2 pathway mutant cell line with high AKR1C3 expression); test: In vitro cell proliferation assay (CellTiter-Glo), H460; assay type: cell-based; settings: Homo sapiens, NCI-H460, 72 h; H460 cells, 3 days, CellTiter-Glo, top concentration 10 μM; read-out: H460 Qualified absolute AC50
Summary of the method: (§1)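 Luminescent CellTiter-Glo readout after 3-day compound exposure at 37 °C; 8-point 1:5 series, top 10 μM final. Seeding: 800 cells/well for H460, 2000 cells/well for Hara, RPMI-1640 plus 10% FBS. AC50 and percentage activity derived after normalizing to DMSO (1%) and MG132 (30 μM) controls.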

[2] = system: Hara (NRF2 pathway wild type cell line with low AKR1C3 expression); test: In vitro cell proliferation assay (CellTiter-Glo), Hara; assay type: cell-based; settings: 72 h; Hara cells, 3 days, CellTiter-Glo, top concentration 10 μM; read-out: HARA Qualified absolute AC50
Summary of the method: as §1

SMILES | AC50 [1] | AC50 [2]
O=C1CC2(CCN(C(=O)NCc3cccc(-c4ncc[nH]4)c3)CC2)Nc2ccc(F)cc21 [Example 130, N-(3-(1H-imidazol-2-yl)benzyl)-6′-fluoro-4′-oxo-3′,4′-dihydro-1′H-spiro[piperidine-4,2′-quinoline]-1-carboxamide] | 1.53 µM | > 10 µM
CCN1c2ccc(F)cc2C(=O)CC12CCN(C(=O)NCc1cc(N)c(F)cc1F)CC2 [Example 50, N-(5-amino-2,4-difluorobenzyl)-1′-ethyl-6′-fluoro-4′-oxo-3′,4′-dihydro-1′H-spiro[piperidine-4,2′-quinoline]-1-carboxamide] | 0.122 µM | > 10 µM
O=C1CC2(CCN(C(=O)NCc3ccc(O)cc3)CC2)Nc2c(F)cc(F)cc21 [Example 54, 6′,8′-difluoro-N-(4-hydroxybenzyl)-4′-oxo-3′,4′-dihydro-1′H-spiro[piperidine-4,2′-quinoline]-1-carboxamide] | 0.003 µM | 9.85 µM
Nc1ccc(CNC(=O)N2CCC3(CC2)CC(=O)c2cc(F)ccc2N3)c(F)c1 [Example 98, N-(4-amino-2-fluorobenzyl)-6′-fluoro-4′-oxo-3′,4′-dihydro-1′H-spiro[piperidine-4,2′-quinoline]-1-carboxamide] | 0.498 µM | > 10 µM
O=C1CC2(CCN(C(=O)NCc3ccc(F)c(NCCO)c3)CC2)Nc2ccc(F)cc21 [Example 78, 6′-fluoro-N-(4-fluoro-3-((2-hydroxyethyl)amino)benzyl)-4′-oxo-3′,4′-dihydro-1′H-spiro[piperidine-4,2′-quinoline]-1-carboxamide] | 0.321 µM | > 10 µM
CNC(=O)c1cc(CNC(=O)N2CCC3(CC2)CC(=O)c2cc(F)ccc2N3)ccc1F [Example 64, 6′-fluoro-N-(4-fluoro-3-(methylcarbamoyl)benzyl)-4′-oxo-3′,4′-dihydro-1′H-spiro[piperidine-4,2′-quinoline]-1-carboxamide] | 0.222 µM | > 10 µM
O=C1CC2(CCN(C(=O)NCc3ccc(O)cc3)CC2)Nc2ccc(F)cc21 [Example 39, 6′-fluoro-N-(4-hydroxybenzyl)-4′-oxo-3′,4′-dihydro-1′H-spiro[piperidine-4,2′-quinoline]-1-carboxamide] | 0.082 µM | > 10 µM
CS(=O)(=O)Nc1cc(CNC(=O)N2CCC3(CC2)CC(=O)c2cc(F)ccc2N3)ccc1F [Example 131, 6′-fluoro-N-(4-fluoro-3-(methylsulfonamido)benzyl)-4′-oxo-3′,4′-dihydro-1′H-spiro[piperidine-4,2′-quinoline]-1-carboxamide] | 1.62 µM | > 10 µM
NS(=O)(=O)c1cc(CNC(=O)N2CCC3(CC2)CC(=O)c2cc(F)ccc2N3)ccc1F [Example 30, 6′-fluoro-N-(4-fluoro-3-sulfamoylbenzyl)-4′-oxo-3′,4′-dihydro-1′H-spiro[piperidine-4,2′-quinoline]-1-carboxamide] | 0.061 µM | > 10 µM
COC(=O)c1cc(CNC(=O)N2CCC3(CC2)CC(=O)c2cc(F)ccc2N3)ccc1F [Example 61, methyl 2-fluoro-5-((6′-fluoro-4′-oxo-3′,4′-dihydro-1′H-spiro[piperidine-4,2′-quinoline]-1-carboxamido)methyl)benzoate] | 0.205 µM | 3.04 µM
Nc1ccc(CNC(=O)N2CCC3(CC2)CC(=O)c2cc(F)ccc2N3)c(Cl)c1 [Example 111, N-(4-amino-2-chlorobenzyl)-6′-fluoro-4′-oxo-3′,4′-dihydro-1′H-spiro[piperidine-4,2′-quinoline]-1-carboxamide] | 0.733 µM | > 10 µM
O=C(NCCO)c1cc(CNC(=O)N2CCC3(CC2)CC(=O)c2cc(F)ccc2N3)ccc1F [Example 48, 6′-fluoro-N-(4-fluoro-3-((2-hydroxyethyl)carbamoyl)benzyl)-4′-oxo-3′,4′-dihydro-1′H-spiro[piperidine-4,2′-quinoline]-1-carboxamide] | 0.108 µM | 7.96 µM
Cc1cc(F)cc2c1NC1(CCN(C(=O)NCc3ccc(F)c(C(N)=O)c3)CC1)CC2=O [Example 142, N-(3-carbamoyl-4-fluorobenzyl)-6′-fluoro-8′-methyl-4′-oxo-3′,4′-dihydro-1′H-spiro[piperidine4,2′-quinoline]-1-carboxamide] | 2.45 µM | > 10 µM
O=C1CC2(CCN(C(=O)NCc3ccno3)CC2)Nc2ccc(F)cc21 [Example 124, 6′-fluoro-N-(isoxazol-5-ylmethyl)-4′-oxo-3′,4′-dihydro-1′H-spiro[piperidine-4,2′-quinoline]-1-carboxamide] | 1.16 µM | > 10 µM
O=C1CC2(CCN(C(=O)NCc3cccc(CO)c3)CC2)Nc2c(F)cc(F)cc21 [Example 129, 6′,8′-difluoro-N-(3-(hydroxymethyl)benzyl)-4′-oxo-3′,4′-dihydro-1′H-spiro[piperidine-4,2′-quinoline]-1-carboxamide] | 1.52 µM | > 10 µM
NC(=O)c1coc(CNC(=O)N2CCC3(CC2)CC(=O)c2cc(F)cc(F)c2N3)c1 [Example 38, N-((4-carbamoylfuran-2-yl)methyl)-6′,8′-difluoro-4′-oxo-3′,4′-dihydro-1′H-spiro[piperidine-4,2′-quinoline]-1-carboxamide] | 0.082 µM | > 10 µM
CCN1c2ccc(F)cc2C(=O)CC12CCN(C(=O)NCc1ccc(F)c(N)c1)CC2 [Example 29, N-(3-amino-4-fluorobenzyl)-1′-ethyl-6′-fluoro-4′-oxo-3′,4′-dihydro-1′H-spiro[piperidine-4,2′-quinoline]-1-carboxamide] | 0.054 µM | > 10 µM
COCCOc1cc(CNC(=O)N2CCC3(CC2)CC(=O)c2cc(F)ccc2N3C)ccc1F [Example 21, 6′-fluoro-N-(4-fluoro-3-(2-methoxyethoxy)benzyl)-1′-methyl-4′-oxo-3′,4′-dihydro-1′H-spiro[piperidine-4,2′-quinoline]-1-carboxamide] | 0.034 µM | > 10 µM
Nc1cc(F)c(CNC(=O)N2CCC3(CC2)CC(=O)c2cc(F)ccc2N3)cc1F [Example 49, N-(4-amino-2,5-difluorobenzyl)-6′-fluoro-4′-oxo-3′,4′-dihydro-1′H-spiro[piperidine-4,2′-quinoline]-1-carboxamide] | 0.113 µM | > 10 µM
O=C1CC2(CCN(C(=O)NCc3cc(NCCO)c(F)cc3F)CC2)Nc2ccc(F)cc21 [Example 77, N-(2,4-difluoro-5-((2-hydroxyethyl)amino)benzyl)-6′-fluoro-4′-oxo-3′,4′-dihydro-1′H-spiro[piperidine-4,2′-quinoline]-1-carboxamide] | 0.311 µM | > 10 µM
O=C1CC2(CCN(C(=O)NCc3cc[nH]n3)CC2)Nc2ccc(F)cc21 [Example 47, N-((1H-pyrazol-3-yl)methyl)-6′-fluoro-4′-oxo-3′,4′-dihydro-1′H-spiro[piperidine-4,2′-quinoline]-1-carboxamide] | 0.106 µM | > 10 µM
O=C1CC2(CCN(C(=O)NCc3ccc4cc[nH]c4c3)CC2)Nc2ccc(F)cc21 [Example 120, N-((1H-indol-6-yl)methyl)-6′-fluoro-4′-oxo-3′,4′-dihydro-1′H-spiro[piperidine-4,2′-quinoline]-1-carboxamide] | 1.05 µM | > 10 µM
COc1cc(F)ccc1CNC(=O)N1CCC2(CC1)CC(=O)c1cc(F)ccc1N2C [Example 2, 6′-fluoro-N-(4-fluoro-2-methoxybenzyl)-1′-methyl-4′-oxo-3′,4′-dihydro-1′H-spiro[piperidine-4,2′-quinoline]-1-carboxamide] | 0.005 µM | > 10 µM
CCCNC(=O)c1cc(CNC(=O)N2CCC3(CC2)CC(=O)c2cc(F)ccc2N3)ccc1F [Example 143, 6′-fluoro-N-(4-fluoro-3-(propylcarbamoyl)benzyl)-4′-oxo-3′,4′-dihydro-1′H-spiro[piperidine-4,2′-quinoline]-1-carboxamide] | 2.62 µM | > 10 µM
Nc1c(F)ccc(CNC(=O)N2CCC3(CC2)CC(=O)c2cc(F)ccc2N3)c1F [Example 84, N-(3-amino-2,4-difluorobenzyl)-6′-fluoro-4′-oxo-3′,4′-dihydro-1′H-spiro[piperidine-4,2′-quinoline]-1-carboxamide] | 0.367 µM | > 10 µM
C[C@@H](O)CNC(=O)c1cc(CNC(=O)N2CCC3(CC2)CC(=O)c2cc(F)ccc2N3C)ccc1F [Example 94, (R)-6′-fluoro-N-(4-fluoro-3-((2-hydroxypropyl)carbamoyl)benzyl)-1′-methyl-4′-oxo-3′,4′-dihydro-1′H-spiro[piperidine-4,2′-quinoline]-1-carboxamide] | 0.471 µM | 9.49 µM
Cn1ncc(Cl)c1CNC(=O)N1CCC2(CC1)CC(=O)c1cc(F)ccc1N2 [Example 93, N-((4-chloro-1-methyl-1H-pyrazol-5-yl)methyl)-6′-fluoro-4′-oxo-3′,4′-dihydro-1′H-spiro[piperidine-4,2′-quinoline]-1-carboxamide] | 5.73 µM | > 10 µM
O=C1CC2(CCN(C(=O)NCc3ccc(F)c(OCCO)c3)CC2)Nc2ccc(F)cc21 [Example 70, 6′-fluoro-N-(4-fluoro-3-(2-hydroxyethoxy)benzyl)-4′-oxo-3′,4′-dihydro-1′H-spiro[piperidine-4,2′-quinoline]-1-carboxamide] | 0.238 µM | 3.55 µM
C/C=C/CN1c2ccc(F)cc2C(=O)CC12CCN(C(=O)NCc1ccc(F)cc1)CC2 [Example 85, (E)-1′-(but-2-en-1-yl)-6′-fluoro-N-(4-fluorobenzyl)-4′-oxo-3′,4′-dihydro-1′H-spiro[piperidine-4,2′-quinoline]-1-carboxamide] | 0.371 µM | 9.49 µM
